In PubChem BioAssay (NCI):
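Where inhibition never reached the appropriate level, the endpoint shown equals the highest concentration tested. Otherwise, values were interpolated linearly from a five-concentration, 48-hour dose response in 96-well plates. TGI is the concentration that stops growth completely.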

Key:
Assay in all cases: inhibition of tumour cell growth, NCI panel, 48 h
OVCAR-5 ovarian = test system: OVCAR-5 ovarian
NCI-H522 lung = test system: NCI-H522 lung
NCI-H23 lung = test system: NCI-H23 lung
HT29 colon = test system: HT29 colon
A549 NSCLC = test system: A549 NSCLC
IGROV1 ovarian = test system: IGROV1 ovarian
HCT-116 colon = test system: HCT-116 colon
SW-620 colon = test system: SW-620 colon
SNB-19 CNS = test system: SNB-19 CNS
HOP-92 NSCLC = test system: HOP-92 NSCLC
SK-OV-3 ovarian = test system: SK-OV-3 ovarian
T-47D breast = test system: T-47D breast
COLO 205 colon = test system: COLO 205 colon
MCF7 breast = test system: MCF7 breast
HOP-62 NSCLC = test system: HOP-62 NSCLC
TK-10 renal = test system: TK-10 renal
HS 578T breast = test system: HS 578T breast
PC-3 prostate = test system: PC-3 prostate
KM12 colon = test system: KM12 colon
HCT-15 colon = test system: HCT-15 colon
M14 melanoma = test system: M14 melanoma
DU-145 prostate = test system: DU-145 prostate
SF-295 CNS = test system: SF-295 CNS
MALME-3M melanoma = test system: MALME-3M melanoma
SF-268 CNS = test system: SF-268 CNS
SK-MEL-5 melanoma = test system: SK-MEL-5 melanoma
SK-MEL-28 melanoma = test system: SK-MEL-28 melanoma
NCI-H226 lung = test system: NCI-H226 lung
BT-549 breast = test system: BT-549 breast
CCRF-CEM leukemia = test system: CCRF-CEM leukemia
RPMI-8226 leukemia = test system: RPMI-8226 leukemia
HL-60(TB) leukemia = test system: HL-60(TB) leukemia
OVCAR-8 ovarian = test system: OVCAR-8 ovarian
NCI-H460 lung = test system: NCI-H460 lung
LOX IMVI melanoma = test system: LOX IMVI melanoma
NCI/ADR-RES ovarian = test system: NCI/ADR-RES ovarian
MDA-N = test system: MDA-N
MDA-MB-231 breast = test system: MDA-MB-231 breast
U251 CNS = test system: U251 CNS
SF-539 CNS = test system: SF-539 CNS
MOLT-4 leukemia = test system: MOLT-4 leukemia
K-562 leukemia = test system: K-562 leukemia
UACC-62 melanoma = test system: UACC-62 melanoma
OVCAR-4 ovarian = test system: OVCAR-4 ovarian
CAKI-1 renal = test system: CAKI-1 renal
A498 renal = test system: A498 renal
UO-31 renal = test system: UO-31 renal
UACC-257 melanoma = test system: UACC-257 melanoma
786-0 renal = test system: 786-0 renal
RXF 393 renal = test system: RXF 393 renal
SR leukemia = test system: SR leukemia
ACHN renal = test system: ACHN renal
SN12C renal = test system: SN12C renal
MDA-MB-435 = test system: MDA-MB-435
OVCAR-3 ovarian = test system: OVCAR-3 ovarian
SNB-75 CNS = test system: SNB-75 CNS
SK-MEL-2 melanoma = test system: SK-MEL-2 melanoma
EKVX NSCLC = test system: EKVX NSCLC
HCC-2998 colon = test system: HCC-2998 colon

Measured: TGI

Nc1nc(N)nc(CC(=O)O)n1
not listed: HCC-2998 colon
> 100 µM: all other assays above

COC(=O)C1CC23C=CCN4CC(C2C)C2(c5ccccc5NC12)C43 (stereo unspecified)
not listed: UO-31 renal
> 100 µM: all other assays above
